Patent publication US4444776A, “Dipyrido (4,3-B) (3,4-F) indoles, process for obtaining them, therapeutical use and pharmaceutical compositions” (priority 1977, dated 1984)

Legend:
[1] = tested on: L 1210 leukemia; assay: Test 1: antitumoral properties on L 1210 leukemia (Table I); assay type: in vivo, mouse
Method: The lower animal antitumoral properties of the compounds according to the invention have been determined by their curative action on inoculated test L-1210 leukemia. [ZUBROD C. G., Proc. Nat. Acad. Sci. 1972, 69, 1042-1047 and SCHEPARTZ SA. SCREENING, 1971, CANCER Chemother. Rep. Part 3 vol.2 p.3].
This leukemia is maintained in ascitic form by passage (i.p. route) on CBDl (C57 B16×DBA/2)F1 mice. The preparation to be tested are injected by the intraperitoneal route at least one day after the inoculation of the cells (one injection only). The results are expressed in increased life span per cent (ILS %) according to KESSEL et al. Cancer Res. 1971, 31, 1883-1887) or in percentage of the number of cells killed by the product (the survival of the animals is proportional to the number of cells injected).
The following tests were made in groups of 10 mice, unless stipulated to the contrary.
Test 1: Study of the antitumoral properties of the compounds of the invention on L 1210 leukemia
The lower animal antitumoral properties of the compounds according to the invention were determined by their curative action on test inoculated L 1210 leukemia.
This leukemia was maintained on CBD 1 (C 57 B 16×DBA/2) F1 mice. The compounds to be tested were injected by the IP route one or more days after the inoculation of the cells (single injection). The results obtained, shown in table I hereinafter, are expressed in percentage of increase of life span (ILS %) and in percentage of the number of cells killed by the compound to be tested, the survival of the animals being proportional to the number of cells injected.
The percentage of the like span ILS % (Cancer. Res. 1971, 31, 1883-1887) is the following ratio: [formula] S^t =survival of the treated animals S^c =survival of the control animals

[2] = tested on: replication of the DNA; assay: Test 6: DNA replication in synchronised cells; assay type: cell-based; settings: first minutes following addition
[3] = tested on: L1210 leukemia; assay: Test 15: L1210 leukemia, compound of formula 8 (Table XI); assay type: in vivo, mouse; settings: for ILS % / MST / Range of death: 50 mg/kg
Method: The proceeding of test 1 was repeated with the compound of formula 8 obtained according to example 1, i.e. 5,11-dimethyl-dipyrido[4,3-b][3,4-f]indole. In this test, the compound of formula 8 was injected four days after the inoculation of the cells (50 mg/kg). The results are shown in table XI wherein the results obtained with the same compound injected one day after the cell inoculation are also reported (see experiment no. 2 in table I).

[4] = tested on: L 1210 leukemia; assay: Test 11: L 1210 leukemic mice, examples 7 and 8 (Table VIII); assay type: in vivo, mouse; design: MTS: unit not given beside the values; settings: J+1
Method: This test was carried out with 10^3, 10^4 and 10^5 leukemic cells on day J. This test was also carried out with the compound of example 7, i.e. 1-[(γ-diethylaminopropyl)amino]-5-methyl-dipyrido [4,3-b][3,4-f] indole (compound 21).

[5] = tested on: L1210 leukemia; assay: Test 17: length of substituting chain, L1210 (Table XIII); assay type: in vivo, mouse
Method: Test 17: Relationship between the length of the substituting chain and the activity.
However compound 21 is less toxic (50 mg/kg for compound 21 and 25 mg/kg for compound 23), it has a higher ILS% than compound 23 and 1 mouse survived up to 60 days.

[6] = tested on: L1210 leukemia; assay: Test 18: dose-L1210 antitumoral activity of compound 21; assay type: in vivo, mouse
Description: Test 18: Relationship between dose and L1210 antitumoral activity of compound 21 […]

[7] = experiment no 1, 10^3 cells, 50 mg/kg, J+2
[8] = experiment no 1, 10^4 cells, 50 mg/kg, J+2
[9] = experiment no 1, 10^5 cells, 50 mg/kg, J+2
[10] = experiment no 1, 10^6 cells, 50 mg/kg, J+2
[11] = experiment no 2, 10^4 cells, 50 mg/kg, J+1
[12] = experiment no 2, 10^5 cells, 50 mg/kg, J+1
[13] = experiment no 2, 10^6 cells, 50 mg/kg, J+1
[14] = 10^3 cells, 0.01 mg/mouse (0.5 mg/kg), J+1
[15] = 10^3 cells, 0.1 mg/mouse (5 mg/kg), J+1
[16] = 10^4 cells, 0.1 mg/mouse (0.5 mg/kg) [sic], J+1
[17] = 10^4 cells, 0.1 mg/mouse (5 mg/kg), J+1

Question: Which results are given for `Cc1c2ccncc2c(C)c2c1[nH]c1ccncc12` [Example 1, 5,11-dimethyl dipyrido [4,3-b][3,4-f] indole]?
Answer: ILS % [1, 7]: 3%; Number of cells found [1, 7]: 800; Number of cells killed [1, 7]: 20%; Surviving mice [1, 7]: 1/10; ILS % [1, 8]: 14,78%; Number of cells found [1, 8]: 6,000; Number of cells killed [1, 8]: 40%; ILS % [1, 9]: 15,73%; Number of cells found [1, 9]: 40,000; Number of cells killed [1, 9]: 60%; Surviving mice [1, 9]: 0; ILS % ([1]; experiment no 1, 10^6 cells, 1 mg/mouse (50 mg/kg), IP, J+2): 34,32%; Number of cells found [1, 10]: 10^5; Number of cells killed [1, 10]: 90%; Surviving mice [1, 10]: 0; ILS % [1, 11]: 11,8%; Number of cells found [1, 11]: 5000; Number of cells killed [1, 11]: 50%; ILS % [1, 12]: 38,1%; Number of cells found [1, 12]: 2000; Number of cells killed [1, 12]: 98%; ILS % ([1]; experiment no 2, 10^6 cells, 1 mg/mouse (50 mg/kg), J+1): 47,3%; Number of cells found [1, 13]: 8000; Number of cells killed [1, 13]: 99%; ILS % (difference with the controls) ([1]; experiment no 3, 0,1 and 0,05 mg/mouse, 10^4 and 10^3 cells): no significant difference; replication of the DNA, initiation and elongation steps [2]: stops, in the first minutes following its addition, the replication of the DNA; ILS % ([3]; 10^4 cells, day +1): 11.8%; MST ([3]; 10^4 cells, day +1): 12.3 days; Range of death ([3]; 10^4 cells, day +1): 11-14; ILS % ([3]; 10^4 cells, day +4): 14.7%; MST ([3]; 10^4 cells, day +4): 12 days; Range of death ([3]; 10^4 cells, day +4): 10-16; ILS % ([3]; 10^5 cells, day +1): 38.1%; MST ([3]; 10^5 cells, day +1): 12.85 days; Range of death ([3]; 10^5 cells, day +1): 10-13; ILS % ([3]; 10^5 cells, day +4): 15.7%; MST ([3]; 10^5 cells, day +4): 10.3 days; Range of death ([3]; 10^5 cells, day +4): 10-11; ILS % ([3]; 10^6 cells, day +1): 47.3%; MST ([3]; 10^6 cells, day +1): 11.5 days; Range of death ([3]; 10^6 cells, day +1): 9-15; ILS % ([3]; 10^6 cells, day +4): 34.3%; MST ([3]; 10^6 cells, day +4): 9 days; Range of death ([3]; 10^6 cells, day +4): 8-13; increased life span (ILS %), early vs late administration ([3]; product given earlier after the cells inoculum): higher when the product was given earlier

Question: What does the source list for `CCN(CC)CCCNc1nccc2c(C)c3[nH]c4ccncc4c3cc12` [Example 7, 1-(γ-diethylaminopropyl)amino-5-methyl-dipyrido-[4,3-b][3,4-f] indole]?
Answer: ILS % [1, 14]: 17.4%; Number of cells found [1, 14]: 80; Number of cells killed [1, 14]: 92%; ILS % [1, 15]: 23.2%; Number of cells found [1, 15]: 40; Number of cells killed [1, 15]: 96%; Surviving mice [1, 15]: 5/10; ILS % ([1]; 10^4 cells, 0.1 mg/mouse (0.5 mg/kg) [sic], IP, J+1): 33.3%; Number of cells found [1, 16]: 60; Number of cells killed [1, 16]: 99.94%; Surviving mice [1, 16]: 1/10; ILS % ([1]; 10^4 cells, 0.1 mg/mouse (5 mg/kg), IP, J+1): 11.5%; Number of cells found [1, 17]: 10^3; Number of cells killed [1, 17]: 90%; ILS % ([4]; 10^3 cells, 0.1 mg/mouse): 15.4%; MTS ([4]; 10^3 cells, 0.1 mg/mouse): 15; Number of surviving mice ([4]; 10^3 cells, 0.1 mg/mouse): 4; ILS % ([4]; 10^3 cells, 0.2 mg/mouse): 25.4%; MTS ([4]; 10^3 cells, 0.2 mg/mouse): 16.3; Number of surviving mice ([4]; 10^3 cells, 0.2 mg/mouse): 7; ILS % ([4]; 10^4 cells, 0.1 mg/mouse): 65.1%; MTS ([4]; 10^4 cells, 0.1 mg/mouse): 18; Number of surviving mice ([4]; 10^4 cells, 0.1 mg/mouse): 1; activity against L1210 leukemia (in words) ([5]; Table XIII summary): the compound the most active on the mice; ILS % ([5]; day +1): 69.2%; Survivors up to 60 days ([5]; day +1): 1; MST ([5]; day +1, control MST 8.8): 14.9; Range of death ([5]; day +1, control MST 8.8): 12-18; ILS % ([5]; day +4): 65.6%; Survivors up to 60 days ([5]; day +4): 0; MST ([5]; day +4, control MST 11.2): 18.5; Range of death ([5]; day +4, control MST 11.2): 14-32; ILS ([6]; 5 mg/kg): 87%; ILS ([6]; 10 mg): 52%; inoculated mice surviving up to 60 days ([6]; 20 mg per kg): 20%; ILS ([6]; 20 mg/kg): 75%; inoculated mice surviving up to 60 days ([6]; 100mg (so in the source)): 10%
